The target in this assay is T1, sGC α1/β1 heterodimer (Homo sapiens, UniProt Q02108+Q02153).
T1 construct: expressed in transfected cells; host or cells: CHO-K1 (clone #7, CHO-K1/sGC)
T1 sequence (Q02108 1-690): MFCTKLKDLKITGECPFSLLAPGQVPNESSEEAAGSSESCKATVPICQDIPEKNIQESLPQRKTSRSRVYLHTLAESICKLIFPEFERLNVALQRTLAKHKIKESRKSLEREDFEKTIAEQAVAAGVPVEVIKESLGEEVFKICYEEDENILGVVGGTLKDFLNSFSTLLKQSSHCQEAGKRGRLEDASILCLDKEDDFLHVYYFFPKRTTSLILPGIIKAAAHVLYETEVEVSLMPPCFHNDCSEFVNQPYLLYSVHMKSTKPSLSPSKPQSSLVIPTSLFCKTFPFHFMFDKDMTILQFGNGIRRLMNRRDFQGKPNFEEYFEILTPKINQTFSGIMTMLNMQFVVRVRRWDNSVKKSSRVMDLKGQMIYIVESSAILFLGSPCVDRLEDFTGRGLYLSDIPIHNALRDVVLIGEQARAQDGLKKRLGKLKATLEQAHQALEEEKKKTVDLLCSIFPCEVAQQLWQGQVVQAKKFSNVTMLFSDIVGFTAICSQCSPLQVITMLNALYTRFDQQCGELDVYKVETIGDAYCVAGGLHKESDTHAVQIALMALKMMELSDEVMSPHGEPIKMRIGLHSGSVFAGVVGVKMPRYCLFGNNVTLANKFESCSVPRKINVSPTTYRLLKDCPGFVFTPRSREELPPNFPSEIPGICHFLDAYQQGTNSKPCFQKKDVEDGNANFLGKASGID
T1 sequence (Q02153 1-619): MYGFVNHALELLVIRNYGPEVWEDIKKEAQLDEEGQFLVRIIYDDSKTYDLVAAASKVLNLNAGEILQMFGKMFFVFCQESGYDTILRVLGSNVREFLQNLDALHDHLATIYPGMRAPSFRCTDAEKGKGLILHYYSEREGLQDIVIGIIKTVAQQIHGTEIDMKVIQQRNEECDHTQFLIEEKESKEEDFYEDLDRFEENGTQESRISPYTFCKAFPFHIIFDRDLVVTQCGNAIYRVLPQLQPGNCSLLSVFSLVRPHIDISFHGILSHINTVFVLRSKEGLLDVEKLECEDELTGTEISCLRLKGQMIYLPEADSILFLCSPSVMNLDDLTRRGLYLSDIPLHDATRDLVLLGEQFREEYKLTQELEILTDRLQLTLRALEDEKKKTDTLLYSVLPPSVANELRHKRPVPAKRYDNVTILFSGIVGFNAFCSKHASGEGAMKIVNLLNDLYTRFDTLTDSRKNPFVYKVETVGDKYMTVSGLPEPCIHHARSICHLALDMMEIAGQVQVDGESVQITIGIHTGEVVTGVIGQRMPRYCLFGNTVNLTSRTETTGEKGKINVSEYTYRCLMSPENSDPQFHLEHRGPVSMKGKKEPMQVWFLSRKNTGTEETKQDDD
Nature of the assay: Cell-based sGC functional assay (CASA assay): cGMP generation in CHO-K1/sGC cells, HTRF detection. The following applies: for Emax: CHO-K1, percent activation relative to standard Compound A in CHO-K1/sGC cells, read-out: % Act.; for pEC50: inflection point (IP) of cGMP generation in CHO-K1/sGC cells, 4P fit, activity expressed as percentage of Compound A. The method, boiled down: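 cGMP was quantified by HTRF after 1 hr, 37° C exposure of thawed CHO-K1 cells expressing sGC α1/β1 to compound, with or without 1 μM DETA-NO. IBMX (0.5 mM) blocked cGMP breakdown, and DMSO was 2.5% final. Percent of standard Compound A's maximal cGMP was fitted (4P) for inflection point.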

pEC50: −log10 of the molar value.

By pEC50 is commonly meant the negative decadic logarithm of the EC50, by convention in mol/L. A higher pEC50 goes with a small EC50. As for `CC(C)Cc1nc(-c2nc(N)c3c(n2)NC(=O)C3(C)c2ccc(Cl)cn2)cn2ccnc12` (stereo not drawn) [Example 125A, 4-amino-5-(5-chloropyridin-2-yl)-2-(8-isobutylimidazo[1,2-a]pyrazin-6-yl)-5-methyl-5H-pyrrolo[2,3-d]pyrimidin-6(7H)-one], the Emax came out at 97% and the pEC50 is 7.39.
For the molecule `CC(C)Cc1nc(-c2nc(N)c3c(n2)NC(=O)C3(c2ccc(Cl)cn2)C2CC2)cn2ccnc12` (stereo not drawn) [Example 126B, 4-amino-5-(5-chloropyridin-2-yl)-5-cyclopropyl-2-(8-isobutylimidazo[1,2-a]pyrazin-6-yl)-5H-pyrrolo[2,3-d]pyrimidin-6(7H)-one], the Emax is 160% and the pEC50 is 6.62.
With `CC(C)Cc1nc(-c2nc(N)c3c(n2)NC(=O)C3(c2ccc(C(F)(F)F)cn2)C2CC2)cn2ccnc12` (stereo not drawn) [Example 127A, 4-amino-5-cyclopropyl-2-(8-isobutylimidazo[1,2-a]pyrazin-6-yl)-5-(5-(trifluoromethyl)pyridin-2-yl)-5H-pyrrolo[2,3-d]pyrimidin-6(7H)-one], the Emax came to 105% and the pEC50 is 6.29.
For `CC(C)Cc1nc(-c2nc(N)c3c(n2)NC(=O)C3(C)c2ccc(C(F)(F)F)cc2)cn2ccnc12` (stereo not drawn) [Example 128B, 4-amino-2-(8-isobutylimidazo[1,2-a]pyrazin-6-yl)-5-methyl-5-(4-(trifluoromethyl)phenyl)-5H-pyrrolo[2,3-d]pyrimidin-6(7H)-one], in that order: 108% and 6.79.
For `CC(C)Cc1nc(-c2nc(N)c3c(n2)NC(=O)C3(C)c2ccc(OC(F)F)cn2)cn2ccnc12` (stereo not drawn) [Example 130A, 4-amino-5-(5-(difluoromethoxy)pyridin-2-yl)-2-(8-isobutylimidazo[1,2-a]pyrazin-6-yl)-5-methyl-5H-pyrrolo[2,3-d]pyrimidin-6(7H)-one], in that order: 119% and 6.49.
For `CCCCc1nc(-c2nc(N)c3c(n2)NC(=O)C3(c2ccc(C(F)(F)F)cn2)C2CC2)cn2ccnc12` (stereo not drawn) [Example 133A, 4-amino-2-(8-butylimidazo[1,2-a]pyrazin-6-yl)-5-cyclopropyl-5-(5-(trifluoromethyl)pyridin-2-yl)-5H-pyrrolo[2,3-d]pyrimidin-6(7H)-one], in that order: 129% and 7.43.
Turning to `CC1(c2cc(F)cc(F)c2)C(=O)Nc2nc(-c3cn4ccnc4cn3)nc(N)c21` (stereo not drawn) [Example 142B, 4-amino-5-(3,5-difluorophenyl)-2-(imidazo[1,2-a]pyrazin-6-yl)-5-methyl-5H-pyrrolo[2,3-d]pyrimidin-6(7H)-one], the Emax was determined as 166% and the pEC50 is 6.18.
Take `CC1(c2ccc(OC(F)(F)F)cc2)C(=O)Nc2nc(-c3cn4ccnc4cn3)nc(N)c21` (stereo not drawn) [Example 145A, 4-amino-2-(imidazo[1,2-a]pyrazin-6-yl)-5-methyl-5-(4-(trifluoromethoxy)phenyl)-5H-pyrrolo[2,3-d]pyrimidin-6(7H)-one]: the Emax came to 96% and the pEC50 was 6.41.
The corresponding values for `Nc1nc(-c2cn3ccnc3cn2)nc2c1C(c1ccc(Cl)cc1)(C1CC1)C(=O)N2` (stereo not drawn) [Example 146B, 4-amino-5-(4-chlorophenyl)-5-cyclopropyl-2-(imidazo[1,2-a]pyrazin-6-yl)-5H-pyrrolo[2,3-d]pyrimidin-6(7H)-one] are 95% and 6.34.
As for `CC1(c2ccc(F)cc2)C(=O)Nc2nc(-c3cn4cc(C(F)(F)F)nc4c(Cc4ccccc4F)n3)nc(N)c21` (stereo not drawn) [Example 147A, 4-amino-2-(8-(2-fluorobenzyl)-2-(trifluoromethyl)imidazo[1,2-a]pyrazin-6-yl)-5-(4-fluorophenyl)-5-methyl-5H-pyrrolo[2,3-d]pyrimidin-6(7H)-one], the Emax worked out at 120% and the pEC50 is 7.92.
In the case of `CC1(c2ccc(F)cc2)C(=O)Nc2nc(-c3cn4cc(C(F)(F)F)nc4c(Cc4cccc(F)c4F)n3)nc(N)c21` (stereo not drawn) [Example 148A, 4-amino-2-(8-(2,3-difluorobenzyl)-2-(trifluoromethyl)imidazo[1,2-a]pyrazin-6-yl)-5-(4-fluorophenyl)-5-methyl-5H-pyrrolo[2,3-d]pyrimidin-6(7H)-one], the Emax was determined as 148% and the pEC50 is 7.62.
Consider `CC1(c2ccc(F)cc2)C(=O)Nc2nc(-c3cn4cc(C(F)(F)F)nc4c(Cc4cccc(F)c4)n3)nc(N)c21` (stereo not drawn) [Example 149A, 4-amino-2-(8-(3-fluorobenzyl)-2-(trifluoromethyl)imidazo[1,2-a]pyrazin-6-yl)-5-(4-fluorophenyl)-5-methyl-5H-pyrrolo[2,3-d]pyrimidin-6(7H)-one], for which the Emax came out at 111% and the pEC50 was 7.66.
For the molecule `CC1(c2ccc(Cl)cc2)C(=O)Nc2nc(-c3cn4cc(C(F)(F)F)nc4c(Cc4cccc(F)c4)n3)nc(N)c21` (stereo not drawn) [Example 150A, 4-amino-5-(4-chlorophenyl)-2-(8-(3-fluorobenzyl)-2-(trifluoromethyl)imidazo[1,2-a]pyrazin-6-yl)-5-methyl-5H-pyrrolo[2,3-d]pyrimidin-6(7H)-one], the Emax was 122% and the pEC50 is 7.54.
For `CC1(c2ccc(Cl)cc2)C(=O)Nc2nc(-c3cn4cc(C(F)(F)F)nc4c(Cc4ccccc4F)n3)nc(N)c21` (stereo not drawn) [Example 151A, 4-amino-5-(4-chlorophenyl)-2-(8-(2-fluorobenzyl)-2-(trifluoromethyl)imidazo[1,2-a]pyrazin-6-yl)-5-methyl-5H-pyrrolo[2,3-d]pyrimidin-6(7H)-one], in that order: 106% and 7.72.
For the molecule `CC1(c2ccc(F)cc2)C(=O)Nc2nc(-c3cn4cc(C(F)(F)F)nc4c(Cc4ccc(F)c(F)c4)n3)nc(N)c21` (stereo not drawn) [Example 152A, 4-amino-2-(8-(3,4-difluorobenzyl)-2-(trifluoromethyl)imidazo[1,2-a]pyrazin-6-yl)-5-(4-fluorophenyl)-5-methyl-5H-pyrrolo[2,3-d]pyrimidin-6(7H)-one], the Emax came out at 129% and the pEC50 was 7.37.
Turning to `CC1(c2ccc(Cl)cc2)C(=O)Nc2nc(-c3cn4cc(C(F)(F)F)nc4c(Cc4ccc(F)cc4)n3)nc(N)c21` (stereo not drawn) [Example 153A, 4-amino-5-(4-chlorophenyl)-2-(8-(4-fluorobenzyl)-2-(trifluoromethyl)imidazo[1,2-a]pyrazin-6-yl)-5-methyl-5H-pyrrolo[2,3-d]pyrimidin-6(7H)-one], the Emax was determined as 110% and the pEC50 was 7.43.
In the case of `CC1(c2ccc(F)cc2)C(=O)Nc2nc(-c3cn4cc(C(F)(F)F)nc4c(Cc4ccc(F)cc4)n3)nc(N)c21` (stereo not drawn) [Example 155A, 4-amino-2-(8-(4-fluorobenzyl)-2-(trifluoromethyl)imidazo[1,2-a]pyrazin-6-yl)-5-(4-fluorophenyl)-5-methyl-5H-pyrrolo[2,3-d]pyrimidin-6(7H)-one], the Emax was 112% and the pEC50 was 6.89.
In the case of `CC1(c2ccc(F)cc2)C(=O)Nc2nc(-c3cn4cc(C(F)(F)F)nc4c(CCC(F)(F)C(F)(F)F)n3)nc(N)c21` (stereo not drawn) [Example 156A, 4-amino-5-(4-fluorophenyl)-5-methyl-2-(8-(3,3,4,4,4-pentafluorobutyl)-2-(trifluoromethyl)imidazo[1,2-a]pyrazin-6-yl)-5H-pyrrolo[2,3-d]pyrimidin-6(7H)-one], the Emax is 92% and the pEC50 is 6.79.

The values are drawn from US9796733B2, “Imidazo-pyrazine derivatives useful as soluble guanylate cyclase activators” (Merck Sharp & Dohme Corp., priority 2014, dated 2017).
